Measurements from patent US20240368139A1, “NOVEL MODULATORS OF EHMT1 AND EHMT2 AND THERAPEUTIC USE THEREOF” (Tango Therapeutics, Inc., priority 2021, published 2024).

Assays:
human EHMT1 982-1266 = molecular target: T1, human EHMT1 982-1266 (Homo sapiens, UniProt Q9H9B1); experiment: EHMT1 enzyme assay on histone peptide substrate (3H-SAM SPA); details: EHMT1 IC50, recombinant human EHMT1 982-1266, histone peptide substrate
T1 sequence (Q9H9B1 982-1266): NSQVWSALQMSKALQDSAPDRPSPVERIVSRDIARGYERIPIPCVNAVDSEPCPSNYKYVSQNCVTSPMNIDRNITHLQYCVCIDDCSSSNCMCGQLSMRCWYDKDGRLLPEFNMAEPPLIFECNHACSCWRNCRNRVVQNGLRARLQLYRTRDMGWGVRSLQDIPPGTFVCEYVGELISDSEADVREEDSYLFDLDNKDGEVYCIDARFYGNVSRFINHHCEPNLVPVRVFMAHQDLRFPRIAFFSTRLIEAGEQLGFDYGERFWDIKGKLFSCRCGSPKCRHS

human EHMT2 913-1193 = molecular target: T2, human EHMT2 913-1193 (Homo sapiens, UniProt Q96KQ7); experiment: EHMT2 enzyme assay on histone peptide substrate (3H-SAM SPA); details: EHMT2 IC50, recombinant human EHMT2 913-1193, histone peptide substrate
T2 sequence (Q96KQ7 913-1193): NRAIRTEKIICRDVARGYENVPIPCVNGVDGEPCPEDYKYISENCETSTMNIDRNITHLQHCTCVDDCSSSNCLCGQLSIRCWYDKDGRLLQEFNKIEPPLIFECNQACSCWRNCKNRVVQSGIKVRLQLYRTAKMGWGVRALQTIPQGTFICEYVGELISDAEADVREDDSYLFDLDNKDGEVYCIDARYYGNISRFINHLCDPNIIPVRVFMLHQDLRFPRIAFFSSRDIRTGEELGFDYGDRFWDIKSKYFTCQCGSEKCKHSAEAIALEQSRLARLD

H3K9me2 in HCT116 cells = experiment: HCT116 H3K9me2 in-cell western assay; format: cell-based; details: Homo sapiens, HCT-116, 72 h, HCT116 cells, 72 hours incubation; read-out: H3K9me2 ICW IC50
From the text: HCT116 cell line was purchased from ATCC (Manassas, VA, USA). […] Penicillin-Streptomycin and heat inactivated fetal bovine serum were purchased from Hyclone (Logan, UT, USA). DPBS, Corning^R were purchased from VWR (Radnor, PA, USA). Triton′ X-100 was purchased from Sigma (St. Louis, MO, USA). Intercept blocking buffer, DRAQ5, Licor Odyssey Infrared Scanner were purchased from Licor Biosciences (Lincoln, NB, USA). Plate washer was purchased from BioTek (Winooski, VT, USA). […] 16% Paraformaldehyde was purchased from Electron Microscopy Sciences (Hatfield, PA, USA). HCT116 cells were maintained in complete growth medium (RPMI supplemented with 10% heat inactivated fetal bovine serum, 1% Penicillin-Streptomycin) and cultured at 37° C. under 5% CO2. N^2-(4-methoxy-3-(3-(pyrrolidin-1-yl)propoxy)phenyl)-N^4,6-dimethyl]pyrimidine-2,4-diamine (synthesis disclosed in International Application WO2017181177A1) was used as a control compound.
HCT116 cells (ATCC) were trypsinized, counted and seeded in assay medium (RPMI supplemented with 10% heat inactivated fetal bovine serum, 1% Penicillin-Streptomycin) at a concentration of 2,000 cells per well to a 384-well cell culture plate with compounds in 50 μl per well. Plates were incubated with at 37° C. under 5% CO2 for 72 hours. After the incubation, 50 μl per well of 8% paraformaldehyde in PBS was added to the plates and incubated at room temperature for 20 minutes. Plates were transferred to a BioTek (EL406) plate washer and washed 5 times with 110 μl per well of wash buffer (1×PBS containing 0.1% Triton X-100). The plates were next blocked with 50 μl of Intercept blocking buffer for 1 hour at room temperature. Blocking buffer was removed and 30 μl per well of monoclonal primary antibody of H3K9me2 (CST) diluted 1:200 in Intercept blocking buffer were added and plates were incubated overnight at 4° C. The plates were then washed 5 times with 110 μl per well of wash buffer (1×PBS containing 0.1% Triton X-100). Next 30 μl per well of secondary was added (1:400 800 CW goat anti-rabbit IgG in blocking buffer) with 1:1000 DRAQ5 in blocking buffer and incubated for 2 hours at room temperature. The plates were washed 5 times with 110 μl per well of wash buffer (1×PBS containing 0.1% Triton X-100) then with 100 μl per well of water once. Plates were allowed to dry at room temperature then imaged on a Licor Odyssey Infrared Scanner which measured integrated intensity at 700 nm and 800 nm wavelength. Both 700 and 800 channels were scanned.
The average of the ratio values (800 nm/700 nm) for each well was calculated and used to determine the percentage for each test well in the plate. Compounds were serially diluted two-fold in 0.1% DMSO for a total of 10 test concentrations beginning at 10 μM. IC50 curves were generated using duplicate wells per concentration of compound. […] IC50 values were calculated using a non-linear regression of Prism.

IC50 (human EHMT1 982-1266) [nM]	IC50 (human EHMT2 913-1193) [nM]	IC50 (H3K9me2 in HCT116 cells) [nM]	SMILES
100 to 500	500 to 2000	100 to 500	CNc1nc(Nc2cc3c(c(C4=CCN(C)CCC4)c2F)OCC3)nc(C)c1OC [Compound 196]
100 to 500	500 to 2000	100 to 500	CNc1nc(Nc2cc3c(c(C4=CCNCCC4)c2F)OCCO3)nc(C)c1F [Compound 197]
< 100	100 to 500	100 to 500	CNc1cc(C)nc(Nc2cc3c(c(C4=CCNCCC4)c2O)OCC3)n1 [Compound 198]
100 to 500	500 to 2000	100 to 500	CNc1cc(C)nc(Nc2cc3c(c(C4=CCN(CC(F)F)CCC4)c2F)OCC3)n1 [Compound 199]
100 to 500	500 to 2000	100 to 500	CNc1cc(C)nc(Nc2cc3c(c(C4=CC(C)N(C)CCC4)c2F)OCC3)n1 (stereo not drawn) [Compound 200]
< 100	< 100	< 100	CNc1cc(C)nc(Nc2cc3c(c(C4=CCN(C)CCC4)c2F)OCO3)n1 [Compound 203]
< 100	< 100	< 100	CNc1cc(C)nc(Nc2cc3c(c(C4=CCN(C)C(C)CC4)c2F)OCC3)n1 (stereo not drawn) [Compound 204]
100 to 500	500 to 2000	100 to 500	CNc1nc(Nc2cc3c(c(C4=CCN(C)CCC4)c2F)OCO3)nc(C)c1F [Compound 205]
< 100	100 to 500	< 100	CNc1cc(C)nc(Nc2cc3c(c(C4=CC(C)NCCC4)c2F)OCC3)n1 (stereo not drawn) [Compound 206]
< 100	< 100	< 100	CNc1cc(C)nc(Nc2cc3c(c(C4=CCNCCC4)c2F)OCO3)n1 [Compound 207]
100 to 500	100 to 500	100 to 500	CNc1cc(Nc2cc3c(c(C4=CCN(C)CCC4)c2F)OCO3)nc(C)c1F [Compound 208]
100 to 500	100 to 500	< 100	CNc1nc(Nc2cc3c(c(C4=CCNCCC4)c2F)OCO3)nc(C)c1F [Compound 209]
< 100	100 to 500	< 100	CCc1c(C)nc(Nc2cc3c(c(C4=CCN(C)CCC4)c2F)OCC3)nc1NC [Compound 210]
< 100	< 100	< 100	CNc1cc(Nc2cc3c(c(C4=CCNCCC4)c2F)OCO3)nc(C)c1F [Compound 211]
< 100	< 100	< 100	CCc1c(C)nc(Nc2cc3c(c(C4=CCNCCC4)c2F)OCC3)nc1NC [Compound 212]
< 100	< 100	< 100	CNc1nc(Nc2cc3c(c(C4=CCN(C)CCC4)c2F)OCC3)nc(C)c1C [Compound 214]
100 to 500	500 to 2000	100 to 500	CNc1nc(Nc2cc3c(c(C4=CCN(C)CCC4)c2F)OCC3)nc(C)c1Cl [Compound 215]
